A short description of series [1]: Induction of estrogen biosynthesis in aromatase overexpressing HEK293A cells assessed as increase in 17beta-estradiol levels preincubated for 24 hrs followed by testosterone addition measured after 24 hrs by magnetic particle-based ELISA. Type of series: functional, cell-based. As to conditions: Homo sapiens, HEK293-A. Background: An ELISA detects its analyte on a solid surface through an enzyme-linked reagent.

Series [2] can be described thus: Cytotoxicity against aromatase overexpressing HEK293A cells assessed as effect on cell proliferation at 10 to 50 uM. It is filed as toxicity, cell-based. The following applies: human, hek293-a.
Series [3] is described as follows: Induction of estrogen biosynthesis in aromatase overexpressing HEK293A cells assessed as increase in 17beta-estradiol levels at 50 uM preincubated for 24 hrs followed by testosterone addition measured after 24 hrs by magnetic particle-based ELISA relative to egonol gentiobioside. It is filed as functional, Homo sapiens, HEK293-A.

Molecules are shown by their SMILES.

Broadly, the EC50 is the midpoint of the concentration-response curve.

Consider `c1ccc(-c2cc3ccccc3o2)cc1`, for which the 50% effective concentration (EC50) in series [1] was determined as 15.5 µM. The Activity result in series [2] is “Non-Toxic”. Besides, the “fold change (FC)” value in series [3] is recorded as over 0.6.

In the case of `COc1cccc2cc(-c3ccccc3)oc12`, the Activity entry in series [2] is listed as “Non-Toxic”.

As for `COc1ccc(-c2cc3cccc(OC)c3o2)cc1OC`, the Activity entry in series [2] was “Non-Toxic”.

For the compound `COc1ccc(-c2cc3ccccc3o2)cc1`, in series [2], the Activity result was “Non-Toxic”.

`COc1ccc(-c2cc3cc(Cl)ccc3o2)cc1`: the Activity entry in series [2] is on record as “Non-Toxic”.

`COc1cc(Cl)cc2cc(-c3ccc(F)cc3)oc12`: in series [1], the concentration for a half-maximal effect (EC50) was found to be 20.1 µM. The Activity entry in series [2] is given as “Non-Toxic”. Also, in series [3], the “fold change (FC)” value was over 0.6.

On to `COc1cc(Cl)cc2cc(-c3ccc(Cl)cc3)oc12`, for which the Activity result in series [2] was “Non-Toxic”.

As to `COc1cccc2cc(-c3ccc([N+](=O)[O-])cc3)oc12`, the Activity entry in series [2] was “Non-Toxic”.

In the case of `COc1ccc(-c2cc3cc(Br)cc(OC)c3o2)cc1`, the EC50 in series [1] is 20.9 µM. For the same compound, the Activity result in series [2] is “Non-Toxic”. Further, the “fold change (FC)” value in series [3] was over 0.6.

Take `COc1cc(Cl)cc2cc(-c3ccccc3)oc12`: in series [2], the Activity result is listed as “Non-Toxic”.

With `COc1cc(-c2cc3cc(Cl)ccc3o2)cc(OC)c1OC`, the half-maximal effective concentration (EC50) in series [1] came to 29.4 µM. In series [2], the Activity result is “Non-Toxic”. Besides, the “fold change (FC)” value in series [3] is recorded as over 0.6.

In the case of `COc1ccc(-c2cc3cc(Br)cc(OC)c3o2)cc1OC`, the Activity entry in series [2] is “Non-Toxic”.

On to `O=[N+]([O-])c1ccc(-c2cc3cc(Cl)cc(Cl)c3o2)cc1`, for which, in series [2], the Activity result was “Non-Toxic”.

In the case of `COc1cc(CCCOC(C)=O)c(C=O)c2cc(-c3ccc4c(c3)OCO4)oc12`, the Activity entry in series [2] is given as “Non-Toxic”.

As to `COc1cccc2cc(-c3ccc4c(c3)OCO4)oc12`, the Activity entry in series [2] is listed as “Non-Toxic”. In series [3], the “fold change (FC)” value is reported as over 0.6.

In the case of `Clc1ccc2oc(-c3ccc(OCc4ccccc4)cc3)cc2c1`, the EC50 in series [1] worked out at 17.2 µM. In addition, the Activity entry in series [2] is on record as “Non-Toxic”. Further, the “fold change (FC)” value in series [3] is over 0.6.

With `COc1ccc(-c2cc3cc(Cl)ccc3o2)cc1OC`, in series [2], the Activity result is given as “Non-Toxic”.

Take `COc1ccccc1-c1cc2cc(Cl)ccc2o1`: the Activity result in series [2] is on record as “Non-Toxic”.

In the case of `COc1cc(SC)cc2cc(-c3ccc(Cl)cc3)oc12`, the Activity entry in series [2] is “Non-Toxic”.

For `COc1cc(CCCO)c(Br)c2c(Br)c(-c3ccc4c(c3)OCO4)oc12`, the Activity result in series [2] is reported as “Non-Toxic”.

For the compound `COc1ccc(-c2cc3cc(Br)cc(OC)c3o2)cc1O`, the EC50 in series [1] is 25.5 µM. The Activity result in series [2] is recorded as “Non-Toxic”. For the same compound, in series [3], the “fold change (FC)” value is over 0.6.

As to `Clc1ccc(-c2cc3cc(Cl)ccc3o2)cc1`, the Activity entry in series [2] is “Non-Toxic”.

`COc1cccc(-c2cc3cc(Br)cc(OC)c3o2)c1`: the Activity entry in series [2] is listed as “Non-Toxic”. Also, in series [3], the “fold change (FC)” value was over 0.6.

Take `Fc1ccc(-c2cc3ccccc3o2)cc1`: the EC50 in series [1] turned out to be 24.9 µM. For the same compound, in series [2], the Activity result was “Non-Toxic”. Moreover, the “fold change (FC)” value in series [3] is over 0.6.

On to `COc1cccc2cc(-c3ccc(Cl)cc3)oc12`, for which, in series [1], the EC50 was 14.7 µM. Moreover, the Activity result in series [2] is listed as “Non-Toxic”. In series [3], the “fold change (FC)” value was over 0.6.

With `COc1ccc(-c2cc3cccc(OC)c3o2)cc1`, the Activity entry in series [2] is given as “Non-Toxic”.

`COc1ccc(-c2cc3ccccc3o2)cc1OC`: the Activity entry in series [2] is given as “Non-Toxic”.

As for `COc1ccc(OC)c(-c2cc3cc(SC)cc(OC)c3o2)c1`, in series [1], the half-maximal effective concentration (EC50) turned out to be 19.4 µM. In series [2], the Activity entry is on record as “Non-Toxic”. For the same compound, the “fold change (FC)” value in series [3] is recorded as over 0.6.

For `COc1ccc(-c2cc3cc(Cl)cc(Cl)c3o2)cc1OC`, the Activity result in series [2] is recorded as “Non-Toxic”.

For `COc1cccc(-c2cc3ccccc3o2)c1`, the EC50 in series [1] turned out to be 20.8 µM. Further, the Activity entry in series [2] is “Non-Toxic”. The “fold change (FC)” value in series [3] is listed as over 0.6.

In the case of `Clc1cc(Cl)c2oc(-c3ccccc3)cc2c1`, the Activity entry in series [2] is listed as “Non-Toxic”.

In the case of `COc1cccc(-c2cc3cc(Cl)cc(Cl)c3o2)c1`, the EC50 in series [1] came out at 19.6 µM. In addition, the Activity entry in series [2] is recorded as “Non-Toxic”. For the same compound, the “fold change (FC)” value in series [3] is over 0.6.

Take `COc1cc(CCCO)c(Br)c2cc(-c3ccc4c(c3)OCO4)oc12`: in series [1], the EC50 is 22.1 µM. In addition, in series [2], the Activity result is reported as “Non-Toxic”. Besides, the “fold change (FC)” value in series [3] is reported as over 0.6.

As to `O=[N+]([O-])c1ccc(-c2cc3cc(Cl)ccc3o2)cc1`, the Activity result in series [2] is “Non-Toxic”.

Regarding `COc1cc(-c2cc3cc(Br)cc(OC)c3o2)ccc1O`, the Activity entry in series [2] is on record as “Non-Toxic”.

For the compound `COc1ccccc1-c1cc2cc(Cl)cc(Cl)c2o1`, the Activity entry in series [2] was “Non-Toxic”.

Take `COc1cccc(-c2cc3cccc(OC)c3o2)c1`: the Activity entry in series [2] was “Non-Toxic”.

With `COc1cc(SC)cc2cc(-c3ccc(F)cc3)oc12`, the Activity entry in series [2] is on record as “Non-Toxic”.

`COc1cc(Br)cc2cc(-c3ccc([N+](=O)[O-])cc3)oc12`: in series [1], the concentration for a half-maximal effect (EC50) is 30.9 µM. Besides, the Activity result in series [2] is reported as “Non-Toxic”. In addition, the “fold change (FC)” value in series [3] was over 0.6.

`COc1cc(CCCOC(C)=O)cc2c(C=O)c(-c3ccc4c(c3)OCO4)oc12`: the Activity entry in series [2] was “Non-Toxic”.

As to `COc1cc(Br)cc2cc(-c3ccc4c(c3)OCO4)oc12`, the Activity result in series [2] is given as “Non-Toxic”.

As to `COc1c(Br)c(CCCO)c(Br)c2c(Br)c(-c3ccc4c(c3)OCO4)oc12`, the Activity entry in series [2] is “Non-Toxic”.

Regarding `COc1ccc(-c2cc3cc(Cl)cc(Cl)c3o2)cc1`, the Activity result in series [2] is given as “Non-Toxic”.

`c1ccc2oc(-c3ccc4c(c3)OCO4)cc2c1`: the Activity entry in series [2] is reported as “Non-Toxic”.

For `COc1cc(CCCO[C@@H]2O[C@H](CO[C@@H]3O[C@H](CO)[C@@H](O)[C@H](O)[C@H]3O)[C@@H](O)[C@H](O)[C@H]2O)cc2cc(-c3ccc4c(c3)OCO4)oc12`, the half-maximal effective concentration (EC50) in series [1] came out at 15.7 µM.

As for `COc1cccc2cc(-c3ccc(F)cc3)oc12`, in series [2], the Activity entry is listed as “Non-Toxic”.

Consider `C=CC(=O)OCCCc1cc(OC)c2oc(-c3ccc4c(c3)OCO4)cc2c1`, for which the Activity entry in series [2] was “Non-Toxic”.

As to `COc1cc(CCCI)cc2cc(-c3ccc4c(c3)OCO4)oc12`, in series [2], the Activity entry was “Non-Toxic”.

For the compound `COc1cc(CCC=O)cc2cc(-c3ccc4c(c3)OCO4)oc12`, the Activity entry in series [2] was “Non-Toxic”.

Consider `COc1cc(CCCBr)cc2cc(-c3ccc4c(c3)OCO4)oc12`, for which the Activity result in series [2] was “Non-Toxic”.

For `COc1cc(CCCOC(=O)c2ccccc2)cc2cc(-c3ccc4c(c3)OCO4)oc12`, the Activity result in series [2] was “Non-Toxic”. For the same compound, the “fold change (FC)” value in series [3] is given as over 0.6.

For the compound `COc1cc(CCCCl)cc2cc(-c3ccc4c(c3)OCO4)oc12`, in series [2], the Activity entry is listed as “Non-Toxic”. For the same compound, in series [3], the “fold change (FC)” value is reported as over 0.6.

`COc1cc(CCCOC(C)=O)cc2cc(-c3ccc4c(c3)OCO4)oc12` [EGONOL ACETATE]: the Activity result in series [2] is “Non-Toxic”.

Regarding `CCCC(=O)OCCCc1cc(OC)c2oc(-c3ccc4c(c3)OCO4)cc2c1` [EGONOLBUTANOATE], in series [2], the Activity result is on record as “Non-Toxic”.

On to `COc1cc(CCCO)cc2cc(-c3ccc4c(c3)OCO4)oc12` [EGONOL], for which the Activity entry in series [2] was “Non-Toxic”.

Source of the values: ChEMBL document CHEMBL3862024, “2-Phenylbenzo[b]furans: Synthesis and promoting activity on estrogen biosynthesis” (Bioorg Med Chem Lett, 2016).
